Experimental findings from ChEMBL document CHEMBL1201862, “PubChem BioAssay data set” (2004) are described below.

Assay [1] has as its target T1, RNA-binding protein pos-1 (Caenorhabditis elegans, UniProt G5EF15).
T1 sequence (G5EF15 whole entry): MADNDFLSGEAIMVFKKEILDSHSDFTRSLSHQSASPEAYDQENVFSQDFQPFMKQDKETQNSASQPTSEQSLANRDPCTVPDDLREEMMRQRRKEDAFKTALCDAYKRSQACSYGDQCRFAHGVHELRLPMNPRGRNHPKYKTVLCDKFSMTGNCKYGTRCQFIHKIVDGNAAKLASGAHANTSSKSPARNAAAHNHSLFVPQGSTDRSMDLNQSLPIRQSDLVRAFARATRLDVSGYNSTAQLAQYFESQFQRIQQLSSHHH
The assay is described as follows: disruptors of C. elegans POS-1 RNA interaction – biochemical, fluorescence polarization, dose response (AID 1964).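 Note: purified POS-1 fused to maltose binding protein made in E. coli; potency of compounds blocking POS-1 binding to fluorescent RNA.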

For assay [2], the target named is T2, Zinc finger protein mex-5 (Caenorhabditis elegans, UniProt Q9XUB2).
T2 sequence (Q9XUB2 whole entry): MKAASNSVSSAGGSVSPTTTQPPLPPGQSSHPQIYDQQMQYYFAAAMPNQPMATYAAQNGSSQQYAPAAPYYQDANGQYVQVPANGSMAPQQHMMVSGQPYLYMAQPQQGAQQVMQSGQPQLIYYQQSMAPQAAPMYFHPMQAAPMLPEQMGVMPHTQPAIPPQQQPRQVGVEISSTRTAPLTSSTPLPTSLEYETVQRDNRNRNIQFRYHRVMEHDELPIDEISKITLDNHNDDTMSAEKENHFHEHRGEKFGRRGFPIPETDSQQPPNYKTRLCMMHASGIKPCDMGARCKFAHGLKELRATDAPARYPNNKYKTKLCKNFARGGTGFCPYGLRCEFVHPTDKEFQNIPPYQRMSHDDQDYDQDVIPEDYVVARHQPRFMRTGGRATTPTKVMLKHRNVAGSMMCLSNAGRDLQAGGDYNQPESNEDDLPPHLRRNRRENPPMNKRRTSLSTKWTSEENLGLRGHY
Description: potency of MEX-5 RNA-binding blockers – biochemical, C. elegans, fluorescence polarization, dose response (AID 1960).

Assay [3] addresses Induced myeloid leukemia cell differentiation protein Mcl-1 (Homo sapiens, UniProt Q07820). The assay is classed as functional.
Assay [4] has as its target T3, Hexokinase HKDC1 (Homo sapiens, UniProt Q2TB90).
T3 sequence (Q2TB90 whole entry): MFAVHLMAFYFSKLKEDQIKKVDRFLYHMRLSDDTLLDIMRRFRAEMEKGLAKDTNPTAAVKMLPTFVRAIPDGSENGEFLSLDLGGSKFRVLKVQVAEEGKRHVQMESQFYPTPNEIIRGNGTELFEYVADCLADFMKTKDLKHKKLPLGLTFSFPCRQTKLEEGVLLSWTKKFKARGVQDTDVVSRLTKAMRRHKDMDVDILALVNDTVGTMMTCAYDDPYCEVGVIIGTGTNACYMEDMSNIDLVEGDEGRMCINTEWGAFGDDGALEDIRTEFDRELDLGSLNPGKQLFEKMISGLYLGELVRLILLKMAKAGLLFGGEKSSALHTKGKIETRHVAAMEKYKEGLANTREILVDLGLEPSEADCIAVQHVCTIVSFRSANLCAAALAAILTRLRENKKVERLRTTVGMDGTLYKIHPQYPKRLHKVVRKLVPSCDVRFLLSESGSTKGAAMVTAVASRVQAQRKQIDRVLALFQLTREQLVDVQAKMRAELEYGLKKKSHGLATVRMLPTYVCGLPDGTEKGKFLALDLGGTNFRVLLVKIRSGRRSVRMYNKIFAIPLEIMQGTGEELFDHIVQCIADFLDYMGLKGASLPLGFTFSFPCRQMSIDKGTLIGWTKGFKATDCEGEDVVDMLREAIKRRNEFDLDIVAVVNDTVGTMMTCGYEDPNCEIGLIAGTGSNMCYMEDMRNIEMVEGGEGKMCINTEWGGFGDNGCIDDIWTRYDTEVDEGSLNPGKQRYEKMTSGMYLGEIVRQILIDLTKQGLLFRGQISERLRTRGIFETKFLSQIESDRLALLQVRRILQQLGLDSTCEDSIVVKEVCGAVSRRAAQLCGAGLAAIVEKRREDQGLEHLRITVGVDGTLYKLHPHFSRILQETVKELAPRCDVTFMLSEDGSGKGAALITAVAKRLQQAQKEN
Description: inhibition of HKDC1 glucose phosphorylation – biochemical, W721R variant, dose response (AID 504729). The assay is classed as functional.

Assay [5] deals with Genome polyprotein (dengue virus type 2, UniProt P29990). The assay is described as follows: flavivirus cap methylation enzyme inhibition – biochemical, confirmation dose response, primary screen (AID 588689). The assay is classed as functional.
The target of assay [6] is T4, Mannose-6-phosphate isomerase (Homo sapiens, UniProt P34949).
T4 sequence (P34949 whole entry): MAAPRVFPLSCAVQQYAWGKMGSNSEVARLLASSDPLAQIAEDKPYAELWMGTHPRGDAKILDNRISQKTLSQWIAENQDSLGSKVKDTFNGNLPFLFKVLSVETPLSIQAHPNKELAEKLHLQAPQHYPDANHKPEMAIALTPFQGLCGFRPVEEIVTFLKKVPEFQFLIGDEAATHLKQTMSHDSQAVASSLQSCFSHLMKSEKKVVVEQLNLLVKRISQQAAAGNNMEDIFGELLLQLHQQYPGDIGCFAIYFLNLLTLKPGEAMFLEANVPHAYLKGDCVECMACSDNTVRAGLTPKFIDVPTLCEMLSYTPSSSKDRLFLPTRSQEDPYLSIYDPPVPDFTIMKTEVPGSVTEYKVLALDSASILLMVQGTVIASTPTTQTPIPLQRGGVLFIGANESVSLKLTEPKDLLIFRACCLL
The assay is described as follows: MPI inhibition at elevated mannose 6-phosphate – biochemical, fluorescence intensity, high mannose 6-phosphate, primary screen (AID 1220).

The source made the active and inactive calls. A value given as a limit tells only on which side of the number the result lay.

Genome polyprotein, sequence (P29990 2492-3391 limits assumed): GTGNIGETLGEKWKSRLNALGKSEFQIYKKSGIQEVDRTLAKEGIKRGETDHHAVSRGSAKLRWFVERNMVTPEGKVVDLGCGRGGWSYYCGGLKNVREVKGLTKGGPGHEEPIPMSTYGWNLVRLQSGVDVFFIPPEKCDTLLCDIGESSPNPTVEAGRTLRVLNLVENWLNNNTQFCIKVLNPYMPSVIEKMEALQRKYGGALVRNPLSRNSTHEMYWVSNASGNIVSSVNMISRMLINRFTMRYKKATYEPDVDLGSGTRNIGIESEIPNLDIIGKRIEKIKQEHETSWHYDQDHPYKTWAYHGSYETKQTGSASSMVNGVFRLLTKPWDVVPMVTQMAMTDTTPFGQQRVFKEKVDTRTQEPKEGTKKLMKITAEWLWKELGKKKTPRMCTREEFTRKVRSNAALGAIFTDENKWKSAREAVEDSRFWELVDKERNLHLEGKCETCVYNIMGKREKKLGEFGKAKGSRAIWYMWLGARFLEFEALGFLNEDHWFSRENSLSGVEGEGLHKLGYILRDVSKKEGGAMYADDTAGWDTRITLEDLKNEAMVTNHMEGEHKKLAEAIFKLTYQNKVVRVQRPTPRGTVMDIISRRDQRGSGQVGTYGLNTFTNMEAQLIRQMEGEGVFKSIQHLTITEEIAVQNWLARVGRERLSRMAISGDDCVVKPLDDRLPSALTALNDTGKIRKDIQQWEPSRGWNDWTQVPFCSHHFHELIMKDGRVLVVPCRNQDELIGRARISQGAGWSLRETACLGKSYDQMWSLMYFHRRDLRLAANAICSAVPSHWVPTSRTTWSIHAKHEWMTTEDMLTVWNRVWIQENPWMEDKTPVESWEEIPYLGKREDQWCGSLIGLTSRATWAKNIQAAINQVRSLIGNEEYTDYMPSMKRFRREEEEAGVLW
Induced myeloid leukemia cell differentiation protein Mcl-1, sequence (Q07820 whole entry): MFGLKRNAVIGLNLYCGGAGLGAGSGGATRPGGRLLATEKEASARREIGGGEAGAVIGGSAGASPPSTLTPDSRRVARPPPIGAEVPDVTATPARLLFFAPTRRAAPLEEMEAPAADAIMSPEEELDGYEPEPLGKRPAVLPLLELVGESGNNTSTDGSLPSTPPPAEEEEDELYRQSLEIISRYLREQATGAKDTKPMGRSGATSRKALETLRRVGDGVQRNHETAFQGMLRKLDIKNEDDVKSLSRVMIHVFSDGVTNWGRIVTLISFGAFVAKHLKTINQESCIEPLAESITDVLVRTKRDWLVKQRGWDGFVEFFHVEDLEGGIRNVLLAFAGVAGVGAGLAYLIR

With `Cc1cc(C)c(S(=O)(=O)Nc2cc(SCC(=O)O)c(O)c3ccccc23)cc1C`, the values for the EC50 in assay [1] and in assay [2] were > 300 µM (not active) and 38.6 µM (active), respectively. Besides, the IC50 in assay [3] is 10.5 µM (active); in assay [4] it was 4.72 µM (active).
For the molecule `O=C(O)c1cc(N2N=C(C(F)(F)F)/C(=C/C=C/c3ccco3)C2=O)ccc1Cl`, the IC50 in assay [5] was 24.2 µM (active); in assay [3] it was 4.69 µM (active); in assay [6], > 50 µM (not active); in assay [4] it was 5.66 µM (active).
Turning to `O=C(/C=C/c1ccco1)NC(=S)Nc1cccc(C(=O)O)c1`, the EC50 in assay [1] is 8.57 µM (active); in assay [2], 8.73 µM (active).
Consider `CNCc1ccccc1Sc1ccc(O)c(O)c1`, for which the results for the concentration for a half-maximal effect (EC50) in assay [1] and in assay [2] were 34.8 µM (active) and 22.6 µM (inconclusive), respectively. Moreover, the IC50 is 21.2 µM (active) in assay [5] and 25.9 µM (active) in assay [6].
